Source: US9018207B2, “Method of treatment or prophylaxis” (Spinifex Pharmaceuticals Pty Ltd, priority 2004, dated 2015)
Values joined by “and” are separate entries in the source; they are usually repeats but may differ in a detail not shown here. Equal values may be shown once. “Also recorded” adds a separate entry of the source.

How the values were obtained:
Assay type in all cases: in vivo, Sprague-Dawley (SD) rats
[1] = system: rats with a chronic constriction injury (CCI) of the sciatic nerve; experiment: Relief of tactile allodynia (von Frey paw withdrawal thresholds) in the ipsilateral (injured) hindpaw of CCI-rats; settings: for doses required to produce significant relief of tactile allodynia in CCI-rats compared with STZ-diabetic rats: CCI-rats vs STZ-diabetic rats
Procedure: (§1) Adult male Sprague-Dawley (SD) rats were anaesthetized with Zoletil 100® (0.09 ml/200 g) and Xylazil-20™ (0.1 mL/200 g) administered by intraperitoneal (i.p.) injection, and a chronic constriction injury (CCI) of the sciatic nerve was produced according to the method of Bennett and Xie (1988). Briefly, the left common sciatic nerve was exposed at mid-thigh level by blunt dissection through the biceps femoris. Proximal to the trifurcation, 10 mm of nerve was freed of adhering tissue and four loose ligatures (3.0 silk) were tied around the sciatic nerve 1 mm apart). The incision was closed in layers. After surgery, rats received benzylpenicillin (60 mg s.c.) to prevent infection and were kept warm during surgical recovery. Rats were housed singly for 10-14 days prior to AT2 receptor antagonist or vehicle (normal saline) administration. After CCI-surgery, rats were inspected daily with regard to posture of the affected hindpaw, exploring behavior, body weight and water intake, and any signs of autotomy. Whilst under light anaesthesia with CO2/O2 (50:50%), CCI-rats or STZ-diabetic rats received a single bolus injection (200 μL) of one AT2 receptor antagonist (PD123,319 or L-159,686) by the intravenous (i.v.) or the intraperitoneal (i.p.) route, using a 250 μL Hamilton syringe. The test compounds were administered to CCI-rats at 14 days after CCI-surgery and to STZ-diabetic rats at approximately 8-wks after the induction of diabetes with STZ. Relief of tactile (mechanical) allodynia, the defining symptom of neuropathic pain, by each of the test agents, PD123,319 or L-159,686, was quantified using calibrated von Frey filaments as described below. Tactile allodynia was quantified using calibrated von Frey filaments. Rats were placed in wire mesh testing cages (20 cm×20 cm×20 cm) and allowed to acclimatise for approximately […] Von Frey filaments were used to determine the lowest mechanical threshold required for a brisk paw withdrawal reflex. Briefly, the filament that produced the lowest force was applied to the plantar surface of the hindpaw until the filament buckled slightly. Absence of a response after 5 s prompted use of the next filament in an ascending sequence. Filaments used produced a buckling weight of 2, 4, 6, 8, 10, 12, 14, 16, 18 and 20 g and these were calibrated prior to each testing session. […] For CCI-rats, baseline von Frey paw withdrawal thresholds (PWTs) were quantified prior to CCI-surgery, and at 14 days post-surgery immediately prior to drug administration. For STZ-diabetic rats, baseline von Frey PWT values were determined prior to the induction of diabetes with STZ and at 1-2 weekly intervals thereafter for 8 weeks to document the temporal development of tactile allodynia. For all rats, baseline PWTs were the mean of three readings taken, 5 min apart before drug administration and were determined separately for each hindpaw. After administration of each test compound, von Frey PWTs were determined at the following post-dosing times: 0.08, 0.25, 0.5, 0.75, 1, 1.25, 1.5, 2 and 3 h. Paw withdrawal thresholds (PWTs; g) were plotted against time to construct response versus time curves for each of the two test compounds (PD123,319 and L-159,686) for each dose and dosing route. Whilst adult male SD rats were anaesthetized with 3% isoflurane: 97% oxygen, four loose ligatures were tied around one sciatic nerve to produce a unilateral chronic constriction injury (CCI) according to the method of Bennett and Xie (1988, Pain 33: 87-107). Briefly, the left common sciatic nerve was exposed at mid-thigh level by blunt dissection through the biceps femoris. Proximal to the trifurcation, 10 mm of nerve was freed of adhering tissue and four loose ligatures (3.0 silk) were tied around the sciatic nerve 1 mm apart). The incision was closed in layers. After surgery, rats received benzylpenicillin (60 mg s.c.) to prevent infection and were kept warm during surgical recovery. […]

STZ-diabetic rats = experiment: Relief of tactile allodynia (von Frey paw withdrawal thresholds) in the hindpaws of STZ-diabetic rats (model of PDN); settings: for relief of tactile allodynia (summary in discussion): STZ-diabetic rat model of PDN; for relief of tactile allodynia (summary in discussion) / onset of anti-allodynia (summary in discussion): single i.p. bolus doses; for reversal of tactile allodynia in the hindpaws: i.p., higher doses tested
Procedure: Adult male SD rats were anaesthetized in a manner similar to that described above, to facilitate insertion of a polyethylene cannula (previously filled with 0.1 ml of sterile saline) into the right common jugular vein. Jugular vein cannulae were tested for correct placement by the withdrawal of a small amount of blood. Diabetes was induced following an acute i.v. injection of streptozotocin (STZ) (80 mg/kg) in 0.1 M citrate buffer (pH 4.5) into the jugular vein. Diabetes was confirmed by monitoring the water intake and blood glucose concentration in individual rats. Blood glucose was monitored using either (Glucostix™) or a Precision QID™ test kit.
Consistent with previous studies in the literature (Calcutt et al., 1996, Pain. 68(2-3):293-9), rats that drank more than 100 mL of water per day by 10 days post-STZ injection, were classified as diabetic, and only rats with blood glucose concentrations exceeding 15 mM were included in the subsequent experiments. By comparison, the water intake of control non-diabetic rats was approximately 20 mL per day and blood glucose concentrations were in the range 5-6 mM, consistent with the literature (Calcutt et al., 1996, supra).
Whilst under light anaesthesia with CO2/O2 (50:50%), CCI-rats or STZ-diabetic rats received a single bolus injection (200 μL) of one AT2 receptor antagonist (PD123,319 or L-159,686) by the intravenous (i.v.) or the intraperitoneal (i.p.) route, using a 250 μL Hamilton syringe. The test compounds were administered to CCI-rats at 14 days after CCI-surgery and to STZ-diabetic rats at approximately 8-wks after the induction of diabetes with STZ. Relief of tactile (mechanical) allodynia, the defining symptom of neuropathic pain, by each of the test agents, PD123,319 or L-159,686, was quantified using calibrated von Frey filaments as described below.
Tactile allodynia was quantified using calibrated von Frey filaments. Rats were placed in wire mesh testing cages (20 cm×20 cm×20 cm) and allowed to acclimatise for approximately […] Von Frey filaments were used to determine the lowest mechanical threshold required for a brisk paw withdrawal reflex. Briefly, the filament that produced the lowest force was applied to the plantar surface of the hindpaw until the filament buckled slightly. Absence of a response after 5 s prompted use of the next filament in an ascending sequence. Filaments used produced a buckling weight of 2, 4, 6, 8, 10, 12, 14, 16, 18 and 20 g and these were calibrated prior to each testing session.
For CCI-rats, baseline von Frey paw withdrawal thresholds (PWTs) were quantified prior to CCI-surgery, and at 14 days post-surgery immediately prior to drug administration. For STZ-diabetic rats, baseline von Frey PWT values were determined prior to the induction of diabetes with STZ and at 1-2 weekly intervals thereafter for 8 weeks to document the temporal development of tactile allodynia. For all rats, baseline PWTs were the mean of three readings taken, 5 min apart before drug administration and were determined separately for each hindpaw. After administration of each test compound, von Frey PWTs were determined at the following post-dosing times: 0.08, 0.25, 0.5, 0.75, 1, 1.25, 1.5, 2 and 3 h.
Paw withdrawal thresholds (PWTs; g) were plotted against time to construct response versus time curves for each of the two test compounds (PD123,319 and L-159,686) for each dose and dosing route.
Whilst adult male SD rats were anaesthetized with 3% isoflurane: 97% oxygen, a short polyethylene cannula (0.4 mm ID, 0.8 mm OD) was inserted into the jugular vein to facilitate the intravenous (i.v) administration of a single dose of STZ (75 mg/kg). After removal of the i.v. cannula, the jugular vein was tied off, the wound was closed and topical bupivacaine was applied. Rats received benzylpenicillin (60 mg s.c.) to prevent infection and were kept warm during surgical recovery. […]

[2] = system: rats with a chronic constriction injury (CCI) of the sciatic nerve; experiment: Relief of tactile allodynia (von Frey paw withdrawal thresholds) in the ipsilateral (injured) hindpaw of CCI-rats; settings: oral bolus 1 mg/kg vs same dose i.p.
[3] = system: rats with a chronic constriction injury (CCI) of the sciatic nerve; experiment: Antinociception (von Frey paw withdrawal thresholds) in the contralateral hindpaw of CCI-rats
Procedure: as §1, with “87-107).” for “87-107). Briefly, the left common sciatic nerve was exposed at mid-thigh level by blunt dissection through the biceps femoris. Proximal to the trifurcation, 10 mm of nerve was freed of adhering tissue and four loose ligatures (3.0 silk) were tied around the sciatic nerve 1 mm apart). The incision was closed in layers. After surgery, rats received benzylpenicillin (60 mg s.c.) to prevent infection and were kept warm during surgical recovery.”

[4] = CCI-rats, i.p. bolus 0.03 to 3 mg/kg
[5] = STZ-diabetic rats, i.p. bolus 0.001 to 3.0 μg/kg
[6] = CCI-rats, sodium salt, i.p. bolus 0.003 to 10 mg/kg
[7] = STZ-diabetic rats, sodium salt, i.p. bolus 0.0003 to 3 mg/kg

COc1ccc(Cn2cnc3c2C[C@@H](C(=O)O)N(C(=O)C(c2ccccc2)c2ccccc2)C3)cc1C [PD-121,981]
doses required to produce significant relief of tactile allodynia in CCI-rats compared with STZ-diabetic rats [1]: considerably larger doses
duration of action ([1]; CCI-rats, 1 mg/kg, irrespective of dosing route (oral or i.p.)): 3 h
anti-allodynia (relief of tactile allodynia) in the ipsilateral hindpaw [1, 4]: dose-dependent anti-allodynia; also recorded: dose-dependent relief of tactile allodynia
durations of action [1, 4]: 2 to 3 h
onset of anti-allodynia in the ipsilateral hindpaw [1, 4]: rapid onset
time of peak anti-allodynia in the ipsilateral hindpaw post-dosing [1, 4]: 0.5 to 0.75 h and 0.5 to 1.0 h
relief of tactile allodynia (summary in discussion) (STZ-diabetic rats): potent relief of tactile allodynia
duration of action (STZ-diabetic rats; STZ-diabetic rats, 0.1 μg/kg, irrespective of dosing route (oral or i.p.)): exceeded 3 h
onset of action (STZ-diabetic rats; [5]): rapid onset of action
relief of tactile allodynia (STZ-diabetic rats; [5]): dose-dependent relief of tactile allodynia
time of peak anti-allodynia post-dosing (STZ-diabetic rats; [5]): 0.5 to 1.0 h
duration of action (STZ-diabetic rats; STZ-diabetic rats, i.p. doses in the range 0.03-3.0 μg/kg): > 3 h
reversal of tactile allodynia in the hindpaws (STZ-diabetic rats; STZ-diabetic rats): fully reversed
extent and duration of the anti-allodynic response, oral compared with i.p. route (STZ-diabetic rats; STZ-diabetic rats, oral bolus 0.1 μg/kg vs same dose i.p.): similar
onset of anti-allodynia (summary in discussion) (STZ-diabetic rats; STZ-diabetic rats): relatively rapid onset
extent and duration of the anti-allodynic response, oral compared with i.p. route [2]: similar
antinociception in the contralateral hindpaw ([3]; i.p. doses up to 3 mg/kg): insignificant antinociception

Cc1cc(Cn2cnc3c2C[C@@H](C(=O)O)N(C(=O)C(c2ccccc2)c2ccccc2)C3)ccc1N(C)C [PD-123,319]
relief of tactile allodynia in the ipsilateral (injured) hindpaw ([1]; CCI-rats, single bolus i.p. 1-10 mg/kg, n=3-4): dose-dependent (A) relief of tactile allodynia
relief of tactile allodynia in the ipsilateral (injured) hindpaw ([1]; CCI-rats, single bolus i.v. 0.1-0.3 mg/kg, n=2): dose-dependent (A) relief of tactile allodynia
relief of tactile allodynia (STZ-diabetic rats; STZ-diabetic rats (8-wks after STZ), single bolus i.p. 0.3-3.0 mg/kg, n=4): dose-dependent relief of tactile allodynia
antinociception in the contralateral hindpaw ([3]; single bolus i.p. 1-10 mg/kg, n=3-4): antinociception in the contralateral hindpaw
antinociception in the contralateral hindpaw ([3]; single bolus i.v. 0.1-0.3 mg/kg, n=2): antinociception in the contralateral hindpaw

CCc1nc2ccc(N(Cc3ccccc3)C(=O)c3cccs3)cc2c(=O)n1Cc1ccc(-c2ccccc2-c2nn[nH]n2)cc1.[Na] [L-161,638 (sodium salt), thiophene-2-carboxylic Acid benzyl-{2-ethyl-4-oxo-3-[2′-(2H-tetrazol-5yl)-biphenyl-4-ylmethyl]-3,4-dihydro-quinazolin-6-yl}-amide Sodium Salt]
doses required to produce significant relief of tactile allodynia in CCI-rats compared with STZ-diabetic rats [1]: considerably larger doses
anti-allodynia (relief of tactile allodynia) in the ipsilateral hindpaw [1, 6]: dose-dependent relief of tactile allodynia
durations of action [1, 6]: 1.5 to 3 h
onset of anti-allodynia in the ipsilateral hindpaw [1, 6]: rapid onset
time of peak responses post-dosing [1, 6]: 0.5 to 0.75 h
anti-allodynia (relief of tactile allodynia) in the ipsilateral hindpaw ([1]; CCI-rats, sodium salt, i.p. bolus 0.003 to 10 mg/kg, listed as L-161,638, Sodium Salt): dose-dependent anti-allodynia
relief of tactile allodynia (summary in discussion) (STZ-diabetic rats): potent relief of tactile allodynia
reversal of tactile allodynia in the hindpaws (STZ-diabetic rats; STZ-diabetic rats): fully reversed
onset of anti-allodynia (summary in discussion) (STZ-diabetic rats; STZ-diabetic rats): relatively rapid onset
duration of action (STZ-diabetic rats; STZ-diabetic rats, sodium salt, i.p. 3 mg/kg dose): > 3 h
onset of relief of tactile allodynia (STZ-diabetic rats; [7]): rapid onset
relief of tactile allodynia (STZ-diabetic rats; [7]): dose-dependent relief of tactile allodynia
time of peak effects post-dosing (STZ-diabetic rats; [7]): 0.25 to 0.75 h
relief of tactile allodynia (STZ-diabetic rats; STZ-diabetic rats, sodium salt, i.p. bolus 0.0003 to 3 mg/kg, listed as L-161,638, Sodium Salt): relief of tactile allodynia
duration of action (STZ-diabetic rats; STZ-diabetic rats, sodium salt, i.p. doses in the range 0.0003-0.03 μg/kg): 3 h
antinociception in the contralateral hindpaw ([3]; sodium salt, i.p. doses up to 10 mg/kg): insignificant antinociception
